Reference: ChEMBL document CHEMBL5154638, “Molecular Plasticity of Crystalline CK2α' Leads to KN2, a Bivalent Inhibitor of Protein Kinase CK2 with Extraordinary Selectivity” (J Med Chem, 2022)

Tests used:
HeLa = assay: cells; conditions: Homo sapiens, 24 h
in vitro = conditions: human, HEK293 cells

Row | EC50 (HeLa) [µM] | EC50 at 24 h (in vitro) [µM] | Structure (SMILES)
1 | 6.19 | 15.9 | O=C(CCC(=O)NCCc1ccc(Cl)c(Cl)c1)NCCCCn1cnc2c(Br)c(Br)c(Br)c(Br)c21
2 | 2.1 |  | O=C(O)c1ccc2c(c1)nc(Nc1cccc(Cl)c1)c1ccncc12 [SILMITASERTIB]
